Source: paper PMC7329984, “A Broad Temperature Active Lipase Purified From a Psychrotrophic Bacterium of Sikkim Himalaya With Potential Application in Detergent Formulation” (Frontiers in Bioengineering and Biotechnology, 2020)

Assays:
ERMR1:04 lipase = tested on: T1, ERMR1:04 lipase; assay: p-nitrophenol release at […] nm; Lineweaver-Burk plot; format: biochemical, Chryseobacterium polytrichastri; conditions: 50 mM Tris pH 8, 37°C; 0.025-0.3 mM substrate
T1 construct: gene alpha/beta hydrolase; native extracellular enzyme purified from culture supernatant (ammonium sulfate, Sephadex G-100, Octyl-Sepharose); gene not firmly identified: MALDI top hit alpha/beta hydrolase of Solibacillus sp

[1] = target: extracellular lipase of Chryseobacterium polytrichastri ERMR1:04 (Chryseobacterium polytrichastri ERMR1:04 (endogenous, secreted)); assay: native gel or EMSA; 10% native PAGE of the Octyl-Sepharose purified lipase (250 kDa band) compared with 12% SDS-PAGE (39.8 kDa band)

| Km (ERMR1:04 lipase) | stoichiometry N [1] | Compound |
| --- | --- | --- |
| 104 µM |  | CCCCCCCCCCCCCCCC(=O)Oc1ccc([N+](=O)[O-])cc1 [pNPP, p-nitrophenyl palmitate] |
|  | 6 | extracellular lipase of Chryseobacterium polytrichastri ERMR1:04 (enzyme) |
